BindingDB's records for doi:10.7270/Q2X928QK (University of Pittsburgh, 2007)

biological target: T1, M-phase inducer phosphatase 2 (Homo sapiens, UniProt P30305); assay: Cdc25B phosphatase inhibitors with catalase present, dose response, biochemical, probe assessment (AID 668)
T1 sequence (P30305 whole entry): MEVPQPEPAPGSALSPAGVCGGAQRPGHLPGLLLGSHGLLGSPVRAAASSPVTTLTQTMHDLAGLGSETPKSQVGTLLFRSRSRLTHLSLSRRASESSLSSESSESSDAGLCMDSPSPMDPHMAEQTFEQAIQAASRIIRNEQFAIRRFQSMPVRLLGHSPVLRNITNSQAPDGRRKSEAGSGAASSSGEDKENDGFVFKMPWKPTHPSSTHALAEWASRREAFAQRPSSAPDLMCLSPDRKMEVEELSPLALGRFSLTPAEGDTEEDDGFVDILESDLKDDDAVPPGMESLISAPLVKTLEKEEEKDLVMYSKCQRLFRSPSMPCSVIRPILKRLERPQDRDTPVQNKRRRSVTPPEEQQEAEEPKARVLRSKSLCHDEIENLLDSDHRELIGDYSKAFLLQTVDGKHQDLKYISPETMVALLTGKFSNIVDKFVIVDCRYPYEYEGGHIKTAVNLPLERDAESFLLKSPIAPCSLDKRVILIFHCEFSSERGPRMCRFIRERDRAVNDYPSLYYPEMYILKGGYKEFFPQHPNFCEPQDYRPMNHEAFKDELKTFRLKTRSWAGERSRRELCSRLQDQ

Row | IC50 | SMILES
1 | 3.8 µM | O=C(OC1CCCCC1)c1ccc2c(c1)C1C=CCC1C(C(=O)O)N2 (stereo not given) [SMR000019385]
2 | 45 µM | Cc1ccccc1Nc1cc2ccccc2c(O)n1 [3-[(2-methylphenyl)amino]-2H-isoquinolin-1-one]
3 | 45.8 µM | Oc1nc(Nc2ccccc2)cc2ccccc12 [MLS000043701]
4 | 6.18 µM | COc1cccc2c1NC(C(=O)O)C1CC=CC21 (stereo not given) [SMR000009698]
5 | > 50 µM | Cc1c(N=c2c(=O)c3ccccc3c2=O)c(=O)n(-c2ccccc2)n1C [MLS000105950]
6 | 7.35 µM | Cc1ccc2c(c1)C1C=CCC1C(C(=O)O)N2 (stereo not given) [MLS-0067149.0001]
7 | > 50 µM | CCOC(=O)C(C(=O)OCC)c1cc(Br)c2noc3c2c1C(=O)c1ccccc1-3 [MLS000038842]
8 | > 50 µM | CCOc1ccc2noc3c2c1C(=O)c1ccccc1-3 [MLS000106837]
9 | > 50 µM | [O-]/[N+](=C\c1ccc(OC(F)F)cc1)c1ccccc1 [1-[4-(difluoromethoxy)phenyl]-N-phenylmethanimine oxide]
10 | 22.4 µM | O=C(Nc1ccc2nc(-c3ccco3)c(-c3ccco3)nc2c1)N1CCCCCC1
11 | > 50 µM | Nc1cccc2cnccc12 [isoquinolin-5-amine]
12 | > 50 µM | [O-]/[N+](=C\c1ccncc1)c1ccccc1
13 | 48.9 µM | O=C1Cc2ccccc2C(=O)N1CCc1ccccc1 [2-(2-phenylethyl)-4H-isoquinoline-1,3-dione]
14 | 11 µM | O=C(O)C1Nc2c(O)cccc2C2C=CCC12 (stereo not given)
15 | > 50 µM | N#Cc1c(N2CCCC2)nc(N)c2c(N)nc(N3CCCC3)cc12 [SMR000061605]
16 | 4.2 µM | COc1ccc(Br)cc1C=c1sc2nc(-c3ccco3)nn2c1=O [5-[(5-bromanyl-2-methoxy-phenyl)methylidene]-2-(furan-2-yl)-[1,3]thiazolo[3,2-b][1,2,4]triazol-6-one]
17 | > 50 µM | O=C(NC1(O)C(=O)c2ccccc2C1=O)c1ccccc1 [N-(2-hydroxy-1,3-dioxo-2-indenyl)benzamide]
18 | > 50 µM | COc1ccc2noc3c2c1C(=O)c1ccccc1-3 [MLS000106874]
19 | 7.12 µM | Cc1ccc2c(c1C)NC(C(=O)O)C1CC=CC21 (stereo not given)
20 | 14.1 µM | N#Cc1c(N)sc(=S)c2c1CCN(Cc1ccccc1)C2 [3-Amino-7-benzyl-1-thioxo-5,6,7,8-tetrahydro-1H-thiopyrano[3,4-c]pyridine-4-carbonitrile]

Row | SMILES | IC50
21 | CCn1nc(-c2ccccc2)nc2c(=O)n(C)c(=O)nc1-2 [1-Ethyl-6-methyl-3-phenyl-1H-pyrimido[5,4-e][1,2,4]triazine-5,7-dione] | 20 µM
22 | CCn1nc(-c2cccs2)nc2c(=O)n(C)c(=O)nc1-2 [1-ethyl-6-methyl-3-thiophen-2-yl-pyrimido[5,4-e][1,2,4]triazine-5,7-dione] | > 50 µM
23 | Cn1ncnc2c(=O)n(C)c(=O)nc1-2 | 23 µM
24 | CC(=O)Nc1cc(OC(C)=O)c2nonc2c1OC(C)=O [Acetic acid 7-acetoxy-5-acetylamino-benzo[1,2,5]oxadiazol-4-yl ester] | > 50 µM
25 | O=C1C=Cc2ccccc2C1=O [1,2-dihydronaphthalene-1,2-dione] | 25.4 µM
